Reference: ChEMBL document CHEMBL3045522, “Responses of dry beans (Phaseolus vulgaris L.) to sulfentrazone” (Crop Prot, 2007)

Experiments:
Assay type in all cases: organism-based
[1] = system: Phaseolus vulgaris; assay: Phytotoxicity against Phaseolus vulgaris (dry bean) assessed as visual crop injury at 840 g a.i./ha applied pre-emergence measured at 7 days post-emergence relative to control; conditions: in vivo, other, 168 h
[2] = system: Phaseolus vulgaris; assay: Phytotoxicity against Phaseolus vulgaris (dry bean) assessed as visual crop injury at 420 g a.i./ha applied pre-emergence measured at 14 days post-emergence relative to control; conditions: in vivo, other, 336 h
[3] = system: Phaseolus vulgaris; assay: Phytotoxicity against Phaseolus vulgaris (dry bean) assessed as visual crop injury at 420 g a.i./ha applied pre-emergence measured at 7 days post-emergence relative to control; conditions: in vivo, other, 168 h
[4] = system: Phaseolus vulgaris; assay: Phytotoxicity against Phaseolus vulgaris (White dry beans) assessed as plant height at 840 g a.i./ha applied pre-emergence measured at 28 days post-emergence (reference value: 31 +/- 2 cm); conditions: in vivo, other, 672 h
[5] = system: Phaseolus vulgaris; assay: Phytotoxicity against Phaseolus vulgaris (Kidney dry beans) assessed as plant height at 840 g a.i./ha applied pre-emergence measured at 28 days post-emergence (reference value: 33 +/- 1 cm); conditions: in vivo, other, 672 h
[6] = system: Phaseolus vulgaris; assay: Phytotoxicity against Phaseolus vulgaris (Cranberry dry beans) assessed as plant height at 840 g a.i./ha applied pre-emergence measured at 28 days post-emergence (reference value: 33 +/- 1 cm); conditions: in vivo, other, 672 h
[7] = system: Phaseolus vulgaris; assay: Phytotoxicity against Phaseolus vulgaris (Brown dry beans) assessed as plant height at 840 g a.i./ha applied pre-emergence measured at 28 days post-emergence (reference value: 33 +/- 1 cm); conditions: in vivo, other, 672 h
[8] = system: Phaseolus vulgaris; assay: Phytotoxicity against Phaseolus vulgaris (White dry beans) assessed as plant height at 420 g a.i./ha applied pre-emergence measured at 28 days post-emergence (reference value: 31 +/- 2 cm); conditions: in vivo, other, 672 h
[9] = system: Phaseolus vulgaris; assay: Phytotoxicity against Phaseolus vulgaris (Pinto dry beans) assessed as visual crop injury at 420 to 840 g a.i./ha applied pre-emergence measured at 28 days post-emergence relative to control; conditions: in vivo, other, 672 h
[10] = system: Phaseolus vulgaris; assay: Phytotoxicity against Phaseolus vulgaris (Kidney dry beans) assessed as visual crop injury at 420 to 840 g a.i./ha applied pre-emergence measured at 28 days post-emergence relative to control; conditions: in vivo, other, 672 h
[11] = system: Phaseolus vulgaris; assay: Phytotoxicity against Phaseolus vulgaris (Cranberry dry beans) assessed as visual crop injury at 420 to 840 g a.i./ha applied pre-emergence measured at 28 days post-emergence relative to control; conditions: in vivo, other, 672 h
[12] = system: Phaseolus vulgaris; assay: Phytotoxicity against Phaseolus vulgaris (brown dry beans) assessed as visual crop injury at 420 to 840 g a.i./ha applied pre-emergence measured at 28 days post-emergence relative to control; conditions: in vivo, other, 672 h
[13] = system: Phaseolus vulgaris; assay: Phytotoxicity against Phaseolus vulgaris (dry bean) assessed as visual crop injury at 840 g a.i./ha applied pre-emergence measured at 28 days post-emergence relative to control; conditions: in vivo, other, 672 h
[14] = system: Phaseolus vulgaris; assay: Phytotoxicity against Phaseolus vulgaris (Black dry bean) assessed as reduction in shoot dry weight applied pre-emergence relative to control; set-up: scale not given: the % may be the effect or the level left; conditions: in vivo
[15] = system: Phaseolus vulgaris; assay: Phytotoxicity against Phaseolus vulgaris (Kidney dry beans) assessed as plant height at 420 g a.i./ha applied pre-emergence measured at 28 days post-emergence (reference value: 33 +/- 1 cm); conditions: in vivo, other, 672 h
[16] = system: Phaseolus vulgaris; assay: Phytotoxicity against Phaseolus vulgaris (Otebo dry beans) assessed as plant height at 420 g a.i./ha applied pre-emergence measured at 28 days post-emergence (reference value: 31 +/- 2 cm); conditions: in vivo, other, 672 h
[17] = system: Phaseolus vulgaris; assay: Phytotoxicity against Phaseolus vulgaris (Cranberry dry beans) assessed as plant height at 420 g a.i./ha applied pre-emergence measured at 28 days post-emergence (reference value: 33 +/- 1 cm); conditions: in vivo, other, 672 h
[18] = system: Phaseolus vulgaris; assay: Phytotoxicity against Phaseolus vulgaris (Black dry beans) assessed as plant height at 420 g a.i./ha applied pre-emergence measured at 28 days post-emergence (reference value: 28 +/- 1 cm); conditions: in vivo, other, 672 h
[19] = system: Phaseolus vulgaris; assay: Phytotoxicity against Phaseolus vulgaris (Yellow eye dry beans) assessed as visual crop injury at 420 to 840 g a.i./ha applied pre-emergence measured at 28 days post-emergence relative to control; conditions: in vivo, other, 672 h
[20] = system: Phaseolus vulgaris; assay: Phytotoxicity against Phaseolus vulgaris (White dry beans) assessed as visual crop injury at 420 to 840 g a.i./ha applied pre-emergence measured at 28 days post-emergence relative to control; conditions: in vivo, other, 672 h
[21] = system: Phaseolus vulgaris; assay: Phytotoxicity against Phaseolus vulgaris (White dry beans) assessed as reduction in yield at 840 g a.i./ha applied pre-emergence relative to control; set-up: scale not given: the % may be the effect or the level left; conditions: in vivo, other
[22] = system: Phaseolus vulgaris; assay: Phytotoxicity against Phaseolus vulgaris (Otebo dry beans) assessed as reduction in yield at 840 g a.i./ha applied pre-emergence relative to control; set-up: scale not given: the % may be the effect or the level left; conditions: in vivo, other
[23] = system: Phaseolus vulgaris; assay: Phytotoxicity against Phaseolus vulgaris (Otebo dry beans) assessed as yield at 420 g a.i./ha applied pre-emergence (reference value: 3.1 +/- 0.1 tons/ha); conditions: in vivo, other
[24] = system: Phaseolus vulgaris; assay: Phytotoxicity against Phaseolus vulgaris (Pinto dry beans) assessed as yield at 420 g a.i./ha applied pre-emergence (reference value: 3.1 +/- 0.1 tons/ha); conditions: in vivo, other
[25] = system: Phaseolus vulgaris; assay: Phytotoxicity against Phaseolus vulgaris (Brown dry beans) assessed as yield at 420 g a.i./ha applied pre-emergence (reference value: 2.3 +/- 0.1 tons/ha); conditions: in vivo, other
[26] = system: Phaseolus vulgaris; assay: Phytotoxicity against Phaseolus vulgaris (Black dry beans) assessed as yield at 420 g a.i./ha applied pre-emergence (reference value: 3.4 +/- 0.2 tons/ha); conditions: in vivo, other
[27] = system: Phaseolus vulgaris; assay: Phytotoxicity against Phaseolus vulgaris (Otebo dry beans) assessed as reduction in shoot dry weight at 840 g a.i./ha applied pre-emergence measured at 42 days post-emergence relative to control; set-up: scale not given: the % may be the effect or the level left; conditions: in vivo, other, 1008 h
[28] = system: Phaseolus vulgaris; assay: Phytotoxicity against Phaseolus vulgaris (Kidney dry beans) assessed as reduction in shoot dry weight at 840 g a.i./ha applied pre-emergence measured at 42 days post-emergence relative to control; set-up: scale not given: the % may be the effect or the level left; conditions: in vivo, other, 1008 h
[29] = system: Phaseolus vulgaris; assay: Phytotoxicity against Phaseolus vulgaris (Brown dry beans) assessed as shoot dry weight at 840 g a.i./ha applied pre-emergence measured at 42 days post-emergence (reference value: 123 +/- 7 g/m); conditions: in vivo, other, 1008 h
[30] = system: Phaseolus vulgaris; assay: Phytotoxicity against Phaseolus vulgaris (Cranberry dry beans) assessed as reduction in shoot dry weight at 840 g a.i./ha applied pre-emergence measured at 42 days post-emergence relative to control; set-up: scale not given: the % may be the effect or the level left; conditions: in vivo, other, 1008 h
[31] = system: Phaseolus vulgaris; assay: Phytotoxicity against Phaseolus vulgaris (Yellow eye dry beans) assessed as shoot dry weight at 420 g a.i./ha applied pre-emergence measured at 42 days post-emergence (reference value: 142 +/- 8 g/m); conditions: in vivo, other, 1008 h
[32] = system: Phaseolus vulgaris; assay: Phytotoxicity against Phaseolus vulgaris (Pinto dry beans) assessed as shoot dry weight at 420 g a.i./ha applied pre-emergence measured at 42 days post-emergence (reference value: 134 +/- 11 g/m); conditions: in vivo, other, 1008 h
[33] = system: Phaseolus vulgaris; assay: Phytotoxicity against Phaseolus vulgaris (Cranberry dry beans) assessed as shoot dry weight at 420 g a.i./ha applied pre-emergence measured at 42 days post-emergence (reference value: 138 +/- 8 g/m); conditions: in vivo, other, 1008 h
[34] = system: Phaseolus vulgaris; assay: Phytotoxicity against Phaseolus vulgaris (Brown dry beans) assessed as shoot dry weight at 420 g a.i./ha applied pre-emergence measured at 42 days post-emergence (reference value: 123 +/- 7 g/m); conditions: in vivo, other, 1008 h
[35] = system: Phaseolus vulgaris; assay: Phytotoxicity against Phaseolus vulgaris (Yellow eye dry beans) assessed as plant height at 840 g a.i./ha applied pre-emergence measured at 28 days post-emergence (reference value: 33 +/- 1 cm); conditions: in vivo, other, 672 h

Cc1nn(-c2cc(NS(C)(=O)=O)c(Cl)cc2Cl)c(=O)n1C(F)F [SULFENTRAZONE]
Activity [1]: 26% | Activity [2]: 12% | Activity [3]: 9% | Activity [4]: 20 cm | Activity [5]: 25 cm | Activity [6]: 21 cm | Activity [7]: 28 cm | Activity [8]: 27 cm | Activity [9]: 9.2% | Activity [10]: 15.9% | Activity [11]: 17.6% | Activity [12]: 7% | Activity [13]: 22% | Activity [14]: 16% | Activity [15]: 29 cm | Activity [16]: 28 cm | Activity [17]: 28 cm | Activity [18]: 26 cm | Activity [19]: 13.1% | Activity [20]: 17.9% | Activity [21]: 52% | Activity [22]: 26% | Crop_yield [23]: 3 tons/ha | Crop_yield [24]: 3.4 tons/ha | Crop_yield [25]: 2.3 tons/ha | Crop_yield [26]: 2.9 tons/ha | Activity [27]: 36% | Activity [28]: 35% | Activity [29]: 121 g/m | Activity [30]: 40% | Activity [31]: 134 g/m | Activity [32]: 149 g/m | Activity [33]: 138 g/m | Activity [34]: 134 g/m | Activity [35]: 25 cm
